ChEMBL document CHEMBL5715952 (Oncotarget, 2015)
Calls of active or inactive are those of the source. The calls are words filed in the database; no cut-off is given here.

Tests used:
[1] = tested on: Bortezomib-resistant ANBL6; assay: Synergistic apoptosis activity in human bortezomib-resistant ANBL6 cells assessed as viable at 1600 nM incubated for 72 hrs in the presence of BTZ by annexin V and 7-AAD staining by flow cytometry analysis (Rvb=80 %); format: functional
[2] = tested on: ANBL-6; assay: Synergistic apoptosis activity in wild-type human ANBL-6 cells assessed as viable at 1600 nM incubated for 72 hrs in the presence of BTZ by annexin V and 7-AAD staining by flow cytometry analysis (Rvb=59 %); format: functional
[3] = tested on: ANBL-6; assay: Synergistic antiproliferative activity against wild-type human ANBL-6 cells assessed as reduction in cell viability at ED50 incubated for 72 hrs in presence of bortezomib by MTS assay; format: functional
[4] = Synergistic antiproliferative activity against human melphalan-resistant RPMI-8226 cells assessed as reduction in cell viability at ED50 incubated for 72 hrs in presence of bortezomib by MTS assay; format: functional, Melphalan-resistant RPMI-8226 cell
[5] = biological target: T1, Bromodomain and extra-terminal motif (BET) (Homo sapiens) (UniProt P25440+O60885+Q58F21+Q15059); settings: Bortezomib-resistant ANBL6 cell, dose lower 40.0 nM, dose upper […]
[6] = tested on: Bortezomib-resistant ANBL6; assay: Induction of apoptosis in human bortezomib-resistant ANBL6 cells assessed as late apoptosis at 1600 nM incubated for 72 hrs by annexin V and 7-AAD staining by flow cytometry analysis (Rvb=5 %); format: functional
[7] = tested on: ANBL-6; assay: Synergistic antiproliferative activity against wild-type human ANBL-6 cells assessed as reduction in cell viability at ED90 incubated for 72 hrs in presence of bortezomib by MTS assay; format: functional
[8] = tested on: ANBL-6; assay: Induction of apoptosis in wild-type human ANBL-6 cells assessed as viable at 1600 nM incubated for 72 hrs by annexin V and 7-AAD staining by flow cytometry analysis (Rvb=59 %); format: functional
[9] = tested on: ANBL-6; assay: Induction of apoptosis in wild-type human ANBL-6 cells assessed as viable at 40 nM incubated for 72 hrs by annexin V and 7-AAD staining by flow cytometry analysis (Rvb=59 %); format: functional
[10] = tested on: Bortezomib-resistant ANBL6; assay: Synergistic antiproliferative activity against human bortezomib-resistant ANBL6 cells assessed as reduction in cell viability at ED90 incubated for 72 hrs in presence of bortezomib by MTS assay; format: functional
[11] = biological target: T1, Bromodomain and extra-terminal motif (BET) (Homo sapiens); settings: ANBL-6, dose lower 40.0 nM, dose upper […]
[12] = tested on: ANBL-6; assay: Synergistic apoptosis activity in wild-type human ANBL-6 cells assessed as early apoptosis at 1600 nM incubated for 24 hrs in the presence of BTZ by annexin V and 7-AAD staining by flow cytometry analysis; format: functional

Cc1sc2c(c1C)C(c1ccc(Cl)cc1)=N[C@@H](CC(N)=O)c1nnc(C)n1-2
Activity [1]: 23%
Activity [2]: 6%
CI [3]: 0.793
CI [4]: 0.925
inhibition [5]: Active
Activity [6]: 16%
CI [7]: 0.614
Activity [8]: 31%
Activity [9]: 59%
CI [10]: 0.355
inhibition [11]: Active
CI [12]: 0.85
